For orientation: melting point means the temperature of the solid-liquid transition.

Two compounds from patent US20090048267A1, “MEDICAMENTS FOR THE TREATMENT OR PREVENTION OF FIBROTIC DISEASES” (Boehringer Ingelheim International GmbH, priority 2004, published 2009) can be followed below.

In data set [1] the test system is bleomycin-induced pulmonary fibrosis. Briefly: Effect on lung morphology following bleomycin-induced pulmonary fibrosis (histology, Masson's Trichrome staining). In kind it is in vivo, Male Wistar rats. The settings on record: bleomycin 10 U/kg intratracheal; daily oral treatment with 50 mg/kg, days 1-21; lungs removed 21 days after bleomycin; FIG. 1C. As for the experimental part: (A) Effect of a representative compound on lung morphology following bleomycin-induced pulmonary fibrosis. Bleomycin sulfate (Bleomycin […]) was purchased from a local pharmacy. All experiments were performed in accordance with German guidelines for animal welfare, performed by persons certified to work with animals and approved by the responsible authorities. Male Wistar rats were intratracheally injected with Bleomycin sulfate (10 U/kg body weight in 300 μl saline) or saline alone (saline control) using a catheter (0.5 mm internal diameter, […]) through the nasal passage, following exposure to the anaesthetic Isofluorane for 5 minutes. The following day, the rats were orally treated with Example A (compound (12)) or saline suspended in 1 ml 0.1% Natrosol. Control rats were administered 1 ml 0.1% Natrosol (vehicle control). [table] 21 days following bleomycin instillation, the rats were killed with a lethal intraperitoneal injection of NarcorenTM (Pentobarbital Sodium, Rhone Merieux). The lungs were then removed, blotted dry and half was snap frozen in liquid nitrogen and stored at -80° C. The other half was fixed in 4% formalin for subsequent paraffin embedding and histology. […] Collagen deposition was assessed using Masson's Trichrome staining.

In data set [2] the test system is procollagen I gene expression. Nature of the data set: Expression of fibrotic marker genes following bleomycin-induced pulmonary fibrosis (real time PCR, lung): procollagen I. It counts as in vivo, Male Wistar rats. Conditions: bleomycin 10 U/kg intratracheal; daily oral treatment with 50 mg/kg, days 1-21; lung RNA at day 21; vs bleomycin + vehicle; FIG. 2. How it is done: (§1) All experiments were performed in accordance with German guidelines for animal welfare, performed by persons certified to work with animals and approved by the responsible authorities. Male Wistar rats were intratracheally injected with Bleomycin sulfate (10 U/kg body weight in 300 μl saline) or saline alone (saline control) using a catheter (0.5 mm internal diameter, […]) through the nasal passage, following exposure to the anaesthetic Isofluorane for 5 minutes. The following day, the rats were orally treated with Example A (compound (12)) or saline suspended in 1 ml 0.1% Natrosol. Control rats were administered 1 ml 0.1% Natrosol (vehicle control).
(§2) 21 days following bleomycin instillation, the rats were killed with a lethal intraperitoneal injection of Narcoren™ (Pentobarbital Sodium, Rhone Merieux). The lungs were then removed, blotted dry and half was snap frozen in liquid nitrogen and stored at −80° C. The other half was fixed in 4% formalin for subsequent paraffin embedding and histology.
(§3) (B) Effect of a representative compound on expression of fibrotic marker genes following bleomycin-induced pulmonary fibrosis.
(§4) One part of the frozen lung tissue dedicated to investigation of gene expression was cut into small pieces using a sterile scalpel blade. […] The concentration of each sample was then measured using a spectrophotometer. […]
In general terms: In qPCR the cycle at which signal appears reflects the starting amount.

Data set [3] deals with fibronectin gene expression. Briefly: Expression of fibrotic marker genes following bleomycin-induced pulmonary fibrosis (real time PCR, lung): fibronectin. Conditions: bleomycin 10 U/kg intratracheal; daily oral treatment with 50 mg/kg, days 1-21; lung RNA at day 21; vs bleomycin + vehicle; FIG. 3. In kind it is in vivo, Male Wistar rats. How it is done: as §1, §2, §3, §4

Compound `COC(=O)c1ccc2c(c1)NC(=O)/C2=C(\Nc1ccc(C(=O)N2CCN(C)[C@@H](C)C2)cc1)c1ccccc1` [(60), (S)-3-(Z)-[1-{4-[(3,4-dimethyl-piperazin-1-yl)-carbonyl]-phenylamino}-1-phenyl-methylidene]-6-methoxycarbonyl-2-indolinone] registered a melting point of 265 to 266 °C.

On to `COC(=O)c1ccc2c(c1)NC(=O)/C2=C(\Nc1ccc(C(=O)N2CCN(C)CC2)cc1)c1ccccc1` [Example A, methyl 3-(Z)-[1-{4-[(4-methyl-piperazin-1-yl)-carbonyl]-phenylamino}-1-phenyl-methylidene]-2-indolinone-6-carboxylate], for which the “lung fibrosis (lung morphology, collagen deposition by Masson's Trichrome staining)” value in data set [1] was “nearly complete reversal of lung fibrosis”. In addition, in data set [2], the “expression of fibrotic marker genes: procollagen I (normalized to 18S)” value is on record as “significant (p<0.0001) inhibition”. Besides, the “expression of fibrotic marker genes: fibronectin (normalized to 18S)” value in data set [3] was “significant (p<0.0001) inhibition”.
